In patent US11203582B2, “Benzamide derivatives for inhibiting endoplasmic reticulum (ER) stress” (The Board of Regents of the University of Oklahoma, priority 2017, dated 2021):
Where two headings read alike, the source gives them in different places.

System: INS-1 cells
Assay: Cell survival assay, intracellular ATP (CellTiter-Glo), INS-1 cells treated with Tm
Type: cell-based, rat
Conditions: for EC50: read-out: EC50; for improvement of EC50 value over the corresponding ethylene derivative: methylene vs ethylene linker (9e vs 8d; 11d vs 11b)
Protocol: A structure-activity-relationship (SAR) study was thus conducted to improve the weak potency of lead compound 1. Newly synthesized or commercially available compounds were tested for their β-cell-protective activity against ER stress in rat INS-1 β-cells. […] The maximum activities and the concentrations that reach half-maximal activity (EC50) of the compounds were evaluated by the degree of increase in viability of INS-1 cells co-treated with the compounds in the presence of Tm compared with Tm treatment alone. Maximum activity value in the tables is reported as % rescue from Tm (0.1 μg/mL)-induced reduction of cell viability. The values for Tm treatment alone and control (DMSO, without Tm) treatment are designated as 0% and 100%, respectively in all tables. EC50 values (the concentrations that reach half-maximal activity) for INS-1 cell viability were calculated with GraphPad Prism from the data of ten 2-fold serial titration points in all tables. All experiments were performed in triplicate in all tables.
INS-1 cells were cultured in RPMI 1640 (Corning, N.Y., USA) supplemented with 10% FBS (Atlanta Biologicals, Norcross, Ga.), HEPES (10 mM, Life Technologies, CA, USA), sodium pyruvate (1 mM, Corning), 2-mercaptoethanol (50 μM, Sigma, St Louis, Mo., USA) and antibiotics (100 UI/mL penicillin and 100 μg/mL streptomycin, Corning). βTC6 cells were cultured in DMEM (Corning) with 15% FBS, sodium pyruvate (1 mM, Corning), non-essential amino acids (1 mM, Thermo, Ill., USA), GlutaMAX (1 mM, Life Technologies) and antibiotics (100 UI/mL penicillin and 100 μg/mL streptomycin). All cells were grown at 37° C. in a humidified 5% CO2 atmosphere.
INS-1 cells or βTC6 cells were seeded at 3×10^3 cells/well in a 384-well plate and treated with compounds at the indicated concentrations. After 3 d treatment, the medium was aspirated and 20 μL/well of CellTiter-Glo reagent (Promega, WI, USA) was added for the detection of intracellular ATP levels. Cell viability was measured with an EnVision multilabel plate reader (PerkinElmer, MA, USA).

[1] = INS-1 cells, Tm-induced ER stress
[2] = Table 2, INS-1 cell viability, Tm 0.1 μg/mL, 72 h
[3] = Table 2, INS-1 cells, Tm 0.1 μg/mL, 72 h, Tm alone 0%, DMSO control 100%
[4] = Table 3, INS-1 cells, Tm 0.1 μg/mL, 72 h, Tm alone 0%, DMSO control 100%
[5] = Table 3, INS-1 cell viability, Tm 0.1 μg/mL, 72 h
[6] = Table 4, INS-1 cell viability, Tm 0.1 μg/mL, 72 h
[7] = Table 4, INS-1 cells, Tm 0.1 μg/mL, 72 h, Tm alone 0%, DMSO control 100%
[8] = Table 5, INS-1 cell viability, Tm 0.1 μg/mL, 72 h
[9] = Table 5, INS-1 cells, Tm 0.1 μg/mL, 72 h, Tm alone 0%, DMSO control 100%

SMILES: O=C(NCCc1cccc(Cl)c1)c1ccc2c(c1)OCCO2 [Compound 1, N-(3-chlorophenethyl)-2,3-dihydrobenzo[b][1,4]dioxine-6-carboxamide]
- maximum activity (β-cell-protective activity) [1]: 42%
- EC50 (Rattus norvegicus, INS1, INS-1 cells, Tm-induced ER stress): 21 µM
- EC50 (Rattus norvegicus, INS1, Table 1, INS-1 cell viability, Tm 0.1 μg/mL, 72 h): 21 ± 5.7 µM
- Emax (Rattus norvegicus, INS1, Table 1, INS-1 cells, Tm 0.1 μg/mL, 72 h, Tm alone 0%, DMSO control 100%, read-out: Maximum activity (% rescue)): 42%

SMILES: COc1ccc(C(=O)NCCc2cccc(Cl)c2)cc1OC [Compound 8h]
- EC50 (Table 1, INS-1 cell viability, Tm 0.1 μg/mL, 72 h): 24 ± 2.1 µM
- Maximum activity (% rescue) (Table 1, INS-1 cells, Tm 0.1 μg/mL, 72 h, Tm alone 0%, DMSO control 100%): 46% ± 17%

SMILES: O=C(NCc1ccccc1Cl)c1ccc2c(c1)OCCO2 [Compound 9a]
- EC50 [2]: 25 ± 6.9 µM
- Maximum activity (% rescue) [3]: 43% ± 12%

SMILES: O=C(NCc1ccccc1Br)c1ccc2c(c1)OCCO2 [Compound 9b]
- EC50 [2]: 25 ± 2.1 µM
- Maximum activity (% rescue) [3]: 38% ± 14%

SMILES: O=C(NCc1cccc(Cl)c1)c1ccc2c(c1)OCCO2 [Compound 9c]
- EC50 [2]: 9.5 ± 1.2 µM
- Maximum activity (% rescue) [3]: 57% ± 11%

SMILES: O=C(NCc1cccc(Br)c1)c1ccc2c(c1)OCCO2 [Compound 9d]
- EC50 [2]: 5.5 ± 0.7 µM
- Maximum activity (% rescue) [3]: 69% ± 9%

SMILES: O=C(NCc1ccc(Cl)cc1)c1ccc2c(c1)OCCO2 [Compound 9e]
- maximum activity (β-cell-protective activity) [1]: 69%
- EC50 [1]: 2.8 µM
- Maximum activity (% rescue) [3]: 69% ± 12%
- improvement of EC50 value over the corresponding ethylene derivative: ~6 fold

SMILES: O=C(NCc1ccc(Cl)c(Cl)c1)c1ccc2c(c1)OCCO2 [Compound 9f]
- EC50 [2]: 3.6 ± 0.9 µM
- Maximum activity (% rescue) [3]: 68% ± 10%

SMILES: Cc1ccccc1C(=O)NCCc1ccccc1 [Compound 10a]
- Maximum activity (% rescue) [4]: 6% ± 5%

SMILES: CC(C)Sc1ccccc1C(=O)NCCc1ccccc1 [Compound 10b]
- EC50 [5]: > 30 µM
- Maximum activity (% rescue) [4]: 30% ± 8%

SMILES: O=C(NCCc1ccccc1)c1cccc(F)c1 [Compound 10c]
- Maximum activity (% rescue) [4]: <0 % rescue

SMILES: O=C(NCCc1ccccc1)c1cccc([N+](=O)[O-])c1 [Compound 10d]
- Maximum activity (% rescue) [4]: <0 % rescue

SMILES: Nc1cccc(C(=O)NCCc2ccccc2)c1 [Compound 10e]
- Maximum activity (% rescue) [4]: <0 % rescue

SMILES: CCOc1cccc(C(=O)NCCc2ccccc2)c1 [Compound 10f]
- EC50 [5]: 26 ± 4.5 µM
- Maximum activity (% rescue) [4]: 49% ± 11%

SMILES: CS(=O)(=O)Nc1cccc(C(=O)NCCc2ccccc2)c1 [Compound 10g]
- EC50 [5]: 25 ± 2.1 µM
- Maximum activity (% rescue) [4]: 24% ± 8%

SMILES: Cc1ccc(C(=O)NCCc2ccccc2)cc1 [Compound 10h]
- EC50 [5]: 20 ± 5.4 µM
- Maximum activity (% rescue) [4]: 25% ± 5%

SMILES: C#CCOc1ccc(C(=O)NCCc2ccccc2)cc1 [Compound 10i]
- EC50 [5]: > 30 µM
- Maximum activity (% rescue) [4]: 54% ± 8%

SMILES: CN(C)S(=O)(=O)c1ccc(C(=O)NCCc2ccccc2)cc1 [Compound 10j]
- EC50 [5]: 19 ± 2.1 µM
- Maximum activity (% rescue) [4]: 37% ± 6%

SMILES: O=C(NCCc1ccccc1)c1ccc(CN2CCCC2)cc1 [Compound 10k]
- maximum activity (β-cell-protective activity) [1]: 31%
- EC50 [5]: 11 ± 1.9 µM
- Maximum activity (% rescue) [4]: 31% ± 7%

SMILES: O=C(NCCc1ccccc1)c1ccc(CN2CCCCC2)cc1 [Compound 10l]
- maximum activity (β-cell-protective activity) [1]: 87%
- EC50 [1]: 21 µM
- EC50 [5]: 21 ± 3.5 µM
- Maximum activity (% rescue) [4]: 87% ± 9%
- EC50 [6]: 21 ± 3.5 µM
- Maximum activity (% rescue) [7]: 87% ± 6%

SMILES: O=C(NCCc1ccccc1)c1ccc(Cl)c(Cl)c1 [Compound 10m]
- EC50 [5]: 17 ± 6.1 µM
- Maximum activity (% rescue) [4]: 42% ± 11%

SMILES: COc1ccc(C(=O)NCCc2ccccc2)cc1C [Compound 10n]
- EC50 [5]: 15 ± 3.2 µM
- Maximum activity (% rescue) [4]: 56% ± 8%

SMILES: O=C(NCCc1ccccc1)c1ccc(F)c(F)c1F [Compound 10o]
- EC50 [5]: 9.9 ± 2.1 µM
- Maximum activity (% rescue) [4]: 23% ± 6%

SMILES: O=C(NCCc1ccccc1)c1cc(F)c(F)c(F)c1F [Compound 10p]
- Maximum activity (% rescue) [4]: <0 % rescue

SMILES: O=C(NCCc1ccc(Cl)cc1)c1ccc(CN2CCCCC2)cc1 [Compound 11a]
- EC50 [6]: 21 ± 4.2 µM
- Maximum activity (% rescue) [7]: 82% ± 10%

SMILES: O=C(NCCc1ccc(Cl)c(Cl)c1)c1ccc(CN2CCCCC2)cc1 [Compound 11b]
- EC50 [1]: 24 ± 2.7 µM
- Maximum activity (% rescue) [7]: 71% ± 11%

SMILES: O=C(NCc1ccc(Cl)cc1)c1ccc(CN2CCCCC2)cc1 [Compound 11c]
- EC50 [6]: 9.5 ± 1.1 µM
- Maximum activity (% rescue) [7]: 77% ± 7%

SMILES: O=C(NCc1ccc(Cl)c(Cl)c1)c1ccc(CN2CCCCC2)cc1 [Compound 11d]
- EC50 [1]: 1.8 ± 0.2 µM
- Maximum activity (% rescue) [7]: 78% ± 10%
- improvement of EC50 value over the corresponding ethylene derivative: 13 fold

SMILES: O=C(NCc1ccc(Cl)cc1)c1ccccc1CN1CCCCC1 [Compound 12a]
- EC50 [8]: 6.9 ± 1.2 µM
- Maximum activity (% rescue) [9]: 73% ± 13%

SMILES: O=C(NCc1ccccc1)c1cccc(CN2CCCCC2)c1 [Compound 12b]
- EC50 [8]: 0.352 ± 0.062 µM
- Maximum activity (% rescue) [9]: 95% ± 8%

SMILES: O=C(NCc1ccccc1Cl)c1cccc(CN2CCCCC2)c1 [Compound 12c]
- EC50 [8]: 2.04 ± 0.18 µM
- Maximum activity (% rescue) [9]: 93% ± 7%

SMILES: O=C(NCc1cccc(Cl)c1)c1cccc(CN2CCCCC2)c1 [Compound 12d]
- EC50 [8]: 0.405 ± 0.057 µM
- Maximum activity (% rescue) [9]: 90% ± 11%

SMILES: O=C(NCc1ccc(Cl)cc1)c1cccc(CN2CCCCC2)c1 [Compound 12e]
- EC50 [8]: 0.24 ± 0.06 µM
- Maximum activity (% rescue) [9]: 93% ± 13%

SMILES: O=C(NCc1ccccc1Cl)c1ccc(CN2CCCCC2)cc1 [Compound 12f]
- EC50 [8]: 13 ± 1.6 µM
- Maximum activity (% rescue) [9]: 87% ± 15%

SMILES: O=C(NCc1cccc(Cl)c1)c1ccc(CN2CCCCC2)cc1 [Compound 12g]
- EC50 [8]: 2.2 ± 0.3 µM
- Maximum activity (% rescue) [9]: 80% ± 9%

SMILES: O=C(NCc1cccc(Br)c1)c1ccc(CN2CCCCC2)cc1 [Compound 12h]
- EC50 [8]: 4.9 ± 0.7 µM
- Maximum activity (% rescue) [9]: 81% ± 12%

SMILES: COc1cccc(CNC(=O)c2cccc(CN3CCCCC3)c2)c1 [Compound 13a]
- EC50 [8]: 0.964 ± 0.135 µM
- Maximum activity (% rescue) [9]: 92% ± 10%

SMILES: COc1ccc(CNC(=O)c2cccc(CN3CCCCC3)c2)cc1 [Compound 13b]
- EC50 [8]: 1.12 ± 0.21 µM
- Maximum activity (% rescue) [9]: 93% ± 5%

SMILES: O=C(NCc1cccc(C(F)(F)F)c1)c1cccc(CN2CCCCC2)c1 [Compound 13c]
- EC50 [8]: 0.246 ± 0.043 µM
- Maximum activity (% rescue) [9]: 91% ± 14%
